Measurements reported in PubChem BioAssay AID2060889 (Molecular Pharmacology Branch, DTP, NCI, 2025).
Blank lines part the entries; values can stand above or below the molecule they belong to.

System: LG0567-F671-PDC complex spheroids viability
Experiment: Anticancer human tumor LG0567-F671-PDC patient-derived lung adenocarcinoma cell line growth inhibition [RAS]
Conditions: for IC50: curve of first compound; for viability, T/C: stronger effect = lower value
Method in brief: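 Tumour cells grown as complex spheroids with HUVEC endothelial cells and mesenchymal stem cells, treated with RAS pathway inhibitor combinations. Each agent spans half-log steps from near clinical Cmax, or 10 microM where Cmax is unknown.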

[1] = second compound 0.000949 µM, first compound 0.0316 µM
[2] = second compound 0.000949 µM, first compound 0.1 µM
[3] = second compound 0.000949 µM, first compound 0.316 µM
[4] = second compound 0.000949 µM, first compound 1 µM
[5] = second compound 0.000949 µM, first compound 3.16 µM
[6] = second compound 0.000949 µM, first compound 10 µM
[7] = second compound 0.003 µM, first compound 0.0316 µM
[8] = second compound 0.003 µM, first compound 0.1 µM
[9] = second compound 0.003 µM, first compound 0.316 µM
[10] = second compound 0.003 µM, first compound 1 µM
[11] = second compound 0.003 µM, first compound 3.16 µM
[12] = second compound 0.003 µM, first compound 10 µM
[13] = second compound 0.00949 µM, first compound 0.0316 µM
[14] = second compound 0.00949 µM, first compound 0.1 µM
[15] = second compound 0.00949 µM, first compound 0.316 µM
[16] = second compound 0.00949 µM, first compound 1 µM
[17] = second compound 0.00949 µM, first compound 3.16 µM
[18] = second compound 0.00949 µM, first compound 10 µM
[19] = second compound 0.03 µM, first compound 0.0316 µM
[20] = second compound 0.03 µM, first compound 0.1 µM
[21] = second compound 0.03 µM, first compound 0.316 µM
[22] = second compound 0.03 µM, first compound 1 µM
[23] = second compound 0.03 µM, first compound 3.16 µM
[24] = second compound 0.03 µM, first compound 10 µM
[25] = second compound 0.0949 µM, first compound 0.0316 µM
[26] = second compound 0.0949 µM, first compound 0.1 µM
[27] = second compound 0.0949 µM, first compound 0.316 µM
[28] = second compound 0.0949 µM, first compound 1 µM
[29] = second compound 0.0949 µM, first compound 3.16 µM
[30] = second compound 0.0949 µM, first compound 10 µM
[31] = second compound 0.3 µM, first compound 0.0316 µM
[32] = second compound 0.3 µM, first compound 0.1 µM
[33] = second compound 0.3 µM, first compound 0.316 µM
[34] = second compound 0.3 µM, first compound 1 µM
[35] = second compound 0.3 µM, first compound 3.16 µM
[36] = second compound 0.3 µM, first compound 10 µM
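Further: spheroids exposed to compound for seven days before readout.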
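Wherever IC50 is given: luminescence signal used as a proxy for viable cells.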

IC50 (second compound 0.000949 µM): < 31.6 nM | IC50 (second compound 0.003 µM): < 31.6 nM | IC50 (second compound 0.00949 µM): < 31.6 nM | IC50 (second compound 0.03 µM): < 31.6 nM | IC50 (second compound 0.0949 µM): < 31.6 nM | IC50 (second compound 0.3 µM): < 31.6 nM
SMILES: CC1(O)CCCC1n1c(=O)c(C(F)F)cc2cnc(NC3CCN(S(C)(=O)=O)CC3)nc21 (stereo unspecified) + CCn1c(-c2cccnc2C(C)OC)c2c3cc(ccc31)N1CCOC(CC(NC(=O)C(C(C)C)N(C)C(=O)C3(F)CCN(C(=O)C#CC(C)(C)N(C)C)CC3)C(=O)N3CCCC(N3)C(=O)OCC(C)(C)C2)C1
viability, T/C [1]: 17.6% | viability, T/C [2]: 18.2% | viability, T/C [3]: 18.2% | viability, T/C [4]: 21.6% | viability, T/C [5]: 22.6% | viability, T/C [6]: 18% | viability, T/C [7]: 17.6% | viability, T/C [8]: 16.9% | viability, T/C [9]: 18.5% | viability, T/C [10]: 21.3% | viability, T/C [11]: 24.5% | viability, T/C [12]: 16.8% | viability, T/C [13]: 15.8% | viability, T/C [14]: 16.7% | viability, T/C [15]: 20.2% | viability, T/C [16]: 20.4% | viability, T/C [17]: 20.7% | viability, T/C [18]: 16.2% | viability, T/C [19]: 14.5% | viability, T/C [20]: 15.2% | viability, T/C [21]: 19.5% | viability, T/C [22]: 19.1% | viability, T/C [23]: 20.2% | viability, T/C [24]: 16.3% | viability, T/C [25]: 13.5% | viability, T/C [26]: 15.5% | viability, T/C [27]: 16.1% | viability, T/C [28]: 17.1% | viability, T/C [29]: 18.6% | viability, T/C [30]: 15.6% | viability, T/C [31]: 11.8% | viability, T/C [32]: 12.4% | viability, T/C [33]: 14.1% | viability, T/C [34]: 16.2% | viability, T/C [35]: 17.4% | viability, T/C [36]: 11.8%

IC50 (second compound 0.000949 µM): < 31.6 nM | IC50 (second compound 0.003 µM): < 31.6 nM | IC50 (second compound 0.00949 µM): < 31.6 nM | IC50 (second compound 0.03 µM): < 31.6 nM | IC50 (second compound 0.0949 µM): < 31.6 nM | IC50 (second compound 0.3 µM): < 31.6 nM
SMILES: C[C@@H](NC(=O)c1ncnc(N)c1Cl)c1ncc(C(=O)Nc2cc(C(F)(F)F)c(Cl)cn2)s1 + CCn1c(-c2cc(N3CCN(C)CC3)cnc2C(C)OC)c2c3cc(ccc31)-c1csc(n1)CC(NC(=O)C1CC1C)C(=O)N1CCCC(N1)C(=O)OCC(C)(C)C2
viability, T/C [1]: 30.9% | viability, T/C [2]: 37.5% | viability, T/C [3]: 43.4% | viability, T/C [4]: 39.1% | viability, T/C [5]: 40.3% | viability, T/C [6]: 35.3% | viability, T/C [7]: 19.7% | viability, T/C [8]: 18.3% | viability, T/C [9]: 19.9% | viability, T/C [10]: 22.7% | viability, T/C [11]: 24.5% | viability, T/C [12]: 26.4% | viability, T/C [13]: 7.34% | viability, T/C [14]: 8.73% | viability, T/C [15]: 10.4% | viability, T/C [16]: 11.1% | viability, T/C [17]: 13.5% | viability, T/C [18]: 12.6% | viability, T/C [19]: 5.32% | viability, T/C [20]: 5.26% | viability, T/C [21]: 5.82% | viability, T/C [22]: 8.15% | viability, T/C [23]: 8.79% | viability, T/C [24]: 9.05% | viability, T/C [25]: 4.43% | viability, T/C [26]: 3.63% | viability, T/C [27]: 3.94% | viability, T/C [28]: 5.56% | viability, T/C [29]: 5.9% | viability, T/C [30]: 7.14% | viability, T/C [31]: 3.16% | viability, T/C [32]: 4.04% | viability, T/C [33]: 3.86% | viability, T/C [34]: 4.35% | viability, T/C [35]: 5.96% | viability, T/C [36]: 5.33%

IC50 (second compound 0.000949 µM): < 3.16 nM | IC50 (second compound 0.003 µM): < 3.16 nM | IC50 (second compound 0.00949 µM): < 3.16 nM | IC50 (second compound 0.03 µM): < 3.16 nM | IC50 (second compound 0.0949 µM): < 3.16 nM | IC50 (second compound 0.3 µM): < 3.16 nM
SMILES: O=C(c1ccc(F)c(F)c1Nc1ccc(I)cc1F)N1CC(O)([C@@H]2CCCCN2)C1 + CCn1c(-c2cc(N3CCN(C)CC3)cnc2C(C)OC)c2c3cc(ccc31)-c1csc(n1)CC(NC(=O)C1CC1C)C(=O)N1CCCC(N1)C(=O)OCC(C)(C)C2
viability, T/C (second compound 0.000949 µM, first compound 0.00316 µM): 21.6% | viability, T/C (second compound 0.000949 µM, first compound 0.01 µM): 13.6% | viability, T/C [1]: 8.81% | viability, T/C [2]: 6.2% | viability, T/C [3]: 1.53% | viability, T/C [4]: 0.54% | viability, T/C (second compound 0.003 µM, first compound 0.00316 µM): 8.59% | viability, T/C (second compound 0.003 µM, first compound 0.01 µM): 6.83% | viability, T/C [7]: 4.65% | viability, T/C [8]: 2.36% | viability, T/C [9]: 1.05% | viability, T/C [10]: 0.48% | viability, T/C (second compound 0.00949 µM, first compound 0.00316 µM): 5.45% | viability, T/C (second compound 0.00949 µM, first compound 0.01 µM): 3.36% | viability, T/C [13]: 2.12% | viability, T/C [14]: 0.98% | viability, T/C [15]: 0.46% | viability, T/C [16]: 0.34% | viability, T/C (second compound 0.03 µM, first compound 0.00316 µM): 3.69% | viability, T/C (second compound 0.03 µM, first compound 0.01 µM): 1.98% | viability, T/C [19]: 1.07% | viability, T/C [20]: 0.6% | viability, T/C [21]: 0.54% | viability, T/C [22]: 0.95% | viability, T/C (second compound 0.0949 µM, first compound 0.00316 µM): 1.82% | viability, T/C (second compound 0.0949 µM, first compound 0.01 µM): 1.19% | viability, T/C [25]: 0.64% | viability, T/C [26]: 0.56% | viability, T/C [27]: 0.47% | viability, T/C [28]: 0.32% | viability, T/C (second compound 0.3 µM, first compound 0.00316 µM): 1.58% | viability, T/C (second compound 0.3 µM, first compound 0.01 µM): 1.13% | viability, T/C [31]: 0.59% | viability, T/C [32]: 0.43% | viability, T/C [33]: 0.53% | viability, T/C [34]: 0.43%
